{
  "source": "patent US20240335547A1",
  "about": "“MODIFIED CHOLIC ACID CONJUGATES” (priority 2022, published 2024)",
  "key": {"[1]": {"assay": "Histopathological studies (H&E staining, imaging) of lungs of infected and non-infected mice", "format": "in vivo, BALB/c mice", "protocol": "Group A: No infection, treated with PBS: Ten (10) BALB/c 6-weeks old female mice were used for this group. Mice were first anesthetized with isoflurane. Each mouse was intranasally treated with one dose of PBS (75 ul). Mice were sacrificed at 72 hrs, and 7 days post treatment. The lungs from these mice were collected for immunohistochemistry and cytokines analysis.\nGroup B: No infection, treated with Compound 12: Twenty (20) BALB/c 6-weeks old female mice was used for this group. Mice were first anesthetized with isoflurane. Each mouse was intranasally treated with one dose of 0.5 mg of […] diluted in PBS (75 ul). Mice were sacrificed at 24 hrs, 48 hrs, 72 hrs, and 7 days post treatment. The lungs from these mice were collected for immunohistochemistry and cytokines analysis.\nGroup C: Infection with 229E, treated with PBS: Thirty five (35) BALB/c 6-weeks old female mice were used for this group. Mice were first anesthetized with isoflurane. Each mouse was intranasally infected with 1×105 plaque forming unit (pfu) of HCoV-229E and then treated with PBS (75 ul) 24 hours later. Mice were sacrificed at 24 hrs post infection, and 24 hrs, 48 hrs, 72 hrs, 6 days, and 7 days post treatment. The lungs from these mice were collected for viral load, immunohistochemistry and cytokines analysis.\nGroup D: Infection with 229E, treated with Compound 12: Forty Five (45) BALB/c 6-weeks old female mice were used for this group. Mice were first anesthetized with isoflurane. Each mouse was intranasally infected with 1×10^5 pfu of HCoV-229E and then treated with 0.5 mg of Compound 12 diluted in PBS (75 ul) 24 hours later. Mice from this group were sacrificed at 24 hrs, 48 hrs, 72 hrs, 6 days and 7 days post treatment. The lungs from these mice were collected for viral load, immunohistochemistry and cytokines analysis."}, "[2]": {"test_system": "Calu-3 cells (ATCC #HTB-55)", "conditions": "for % Luminescence / Luminescence intensity: 3 repeats"}, "[3]": {"test_system": "Candida albicans", "assay": "Fungicidal activity MIC/MBC", "format": "cell-based", "conditions": "Yeast"}, "[4]": {"test_system": "MRSA", "assay": "Bactericidal activity MIC/MBC", "format": "cell-based", "conditions": "Staphylococcus aureus"}, "[5]": {"assay": "Cytotoxicity in human primary cell cultures (Trypan Blue Staining)", "format": "cell-based", "conditions": "human, CC50", "protocol": "(1) HFF (human foreskin fibroblast) cells (2×105) were seeded with 2 ml of DMEM medium supplemented with 10% FBS in each well of two 12-well tissue culture plates. (2) Cells were cultured for 3 days. CSA-44 was added to test for cell toxicity. Eleven concentrations were tested: 40 μg/ml, 30 μg/ml, […], 17.5 μg/ml, 15 μg/ml, 12.5 μg/ml, 10 μg/ml, 7.5 μg/ml, 5 μg/ml, 2.5 μg/ml, and 1 μg/ml. Samples with concentration of 0 μg/ml were used as the control. Each concentration was tested in duplicates with two wells. (3) Cells were cultured for 48 hours with CSA-44. Trypan Blue Staining was used to determine the numbers of living and dead cells on a hemocytometer. Percentages of living and dead cells in each sample were calculated.\n(1) HFF cells (2×105) were seeded with 2 ml of DMEM medium supplemented with 10% FBS in each well of two 12-well tissue culture plates. (2) Cells were cultured for 3 days. CMA Conjugate was added to test for cell toxicity. Eleven concentrations were tested. They were 100 μg/ml, 80 μg/ml, 60 μg/ml, 50 μg/ml, 40 μg/ml, 30 μg/ml, 25 μg/ml, 20 μg/ml, 15 μg/ml, 10 μg/ml, and 5 μg/ml. Samples with concentration of 0 μg/ml were used as the control. Each concentration was tested in duplicates with two wells. (3) Cells were cultured for 48 hours with CMA Conjugate. […] Percentages of living and dead cells in each sample were calculated."}, "[6]": {"test_system": "Coronavirus 229E", "assay": "\"Disinfectant\" experiments: virus pre-mixed with compound, then added to HFFs", "format": "cell-based", "conditions": "Human coronavirus 229E, 0.25 h; mixed with virus 15 minutes at room temperature before adding to HFFs", "protocol": "In the “disinfectant” experiments, stock solution of Compound 12 was generated by dissolving the compound in 10% DMSO solution. Different amounts of Compound 12 from the stock solution were mixed with 10^4 PFU of Coronavirus 229E. After incubation at room temperature for 15 minutes, the mixture of virus and Compound 12 was added to the culture of primary human foreskin fibroblasts (HFFs). At 24 hours post-infection, culture medium was changed and the infected HFFs were further cultured in the absence of Compound 12. The level of inhibition of virus infection and production was determined."}, "[7]": {"test_system": "Pseudomonas", "assay": "Bactericidal activity MIC/MBC", "format": "cell-based", "conditions": "Gram−"}},
  "note": "Several values for one entry are separate records, joined by “and”; a condition that tells them apart may be missing. Equal values may be shown once. Read-outs that look alike come from different tables or passages of the source.",
  "data": [
    {"smiles": "C[C@H](CCC(=O)NCCNC(=O)CCCC[C@@H]1SCC2NC(=O)NC21)C1CCC2C3C(C[C@H](OC(=O)CCN)[C@@]21C)[C@@]1(C)CC[C@@H](OC(=O)CCN)CC1C[C@H]3OC(=O)CCN", "note": "(stereo partly drawn) [Compound 12]", "values": [
      {"measurement": "effect on the morphology of the lung", "setting": "[1]; 3 days post treatment, 0.5 mg intranasally", "value": "does not cause significant detrimental effects"},
      {"measurement": "toxicity in vivo", "setting": "[1]; dosage 0.5 mg/mice", "value": "does not exhibit significant toxicity in vivo"},
      {"measurement": "detection of compound in the lung tissues (staining and imaging)", "setting": "[1]; intranasal, 0.5 mg", "value": "detected at 1-2 days post treatment but not in 3 days post treatment"},
      {"measurement": "% Luminescence", "setting": "[2]; 20 uM", "value": "102% and 97% and 101%"},
      {"measurement": "Luminescence intensity", "setting": "[2]; 20 uM", "value": "27,723 and 26,322 and 27,521"},
      {"measurement": "% Luminescence", "setting": "[2]; 26.7 uM", "value": "103% and 97% and 99%"},
      {"measurement": "Luminescence intensity", "setting": "[2]; 26.7 uM", "value": "27,962 and 26,310 and 26,857"},
      {"measurement": "% Luminescence", "setting": "[2]; 35.6 uM", "value": "105% and 103% and 104%"},
      {"measurement": "Luminescence intensity", "setting": "[2]; 35.6 uM", "value": "28,560 and 28,084 and 28,199"},
      {"measurement": "% Luminescence", "setting": "[2]; 47.5 uM", "value": "110% and 105% and 104%"},
      {"measurement": "Luminescence intensity", "setting": "[2]; 47.5 uM", "value": "29,946 and 28,451 and 28,177"},
      {"measurement": "% Luminescence", "setting": "[2]; 63.3 uM", "value": "111% and 110% and 106%"},
      {"measurement": "Luminescence intensity", "setting": "[2]; 63.3 uM", "value": "30,079 and 29,936 and 28,795"},
      {"measurement": "% Luminescence", "setting": "[2]; 84.4 uM", "value": "110% and 109% and 108%"},
      {"measurement": "Luminescence intensity", "setting": "[2]; 84.4 uM", "value": "29,975 and 29,736 and 29,345"},
      {"measurement": "% Luminescence", "setting": "[2]; 112.5 uM", "value": "108% and 106% and 105%"},
      {"measurement": "Luminescence intensity", "setting": "[2]; 112.5 uM", "value": "29,458 and 28,788 and 28,587"},
      {"measurement": "% Luminescence", "setting": "[2]; 150 uM", "value": "107% and 104% and 106%"},
      {"measurement": "Luminescence intensity", "setting": "[2]; 150 uM", "value": "29,194 and 28,202 and 28,754"},
      {"measurement": "% Luminescence", "setting": "[2]; 200 uM", "value": "111% and 107% and 106%"},
      {"measurement": "Luminescence intensity", "setting": "[2]; 200 uM", "value": "30,150 and 29,181 and 28,872"},
      {"measurement": "CC50", "setting": "[2]; human, 3 days", "value": "> 200", "unit": "µM"},
      {"measurement": "MBC", "setting": "[3]", "value": 66.2, "unit": "µg/mL"},
      {"measurement": "MIC", "setting": "[3]", "value": 66.2, "unit": "µg/mL"},
      {"measurement": "MBC", "setting": "[4]", "value": 1060, "unit": "µg/mL"},
      {"measurement": "MIC", "setting": "[4]", "value": 530, "unit": "µg/mL"},
      {"measurement": "CC50 at 48 h", "setting": "[5]", "value": "~65", "unit": "µg/mL"},
      {"measurement": "EC50", "setting": "[6]", "value": 500, "unit": "µg/mL"},
      {"measurement": "MBC", "setting": "[7]", "value": 1060, "unit": "µg/mL"},
      {"measurement": "MIC", "setting": "[7]", "value": 530, "unit": "µg/mL"}
    ]}
  ]
}
